We go through 37 molecules from ChEMBL document CHEMBL4819020, “Discovery of [1,2,4]triazolo[1,5-a]pyrimidines derivatives as potential anticancer agents” (Eur J Med Chem, 2021).

The term IC50 denotes the midpoint of a concentration-inhibition curve.

The subject of one assay is MGC-803. The assay can be described thus: Antiproliferative activity against human MGC-803 cells assessed as inhibition of cell proliferation measured after 72 hrs by MTT assay. The class given is functional, cell-based. As to conditions: MGC-803, 72 h.
In another assay the test system is MCF7. The assay can be described thus: Antiproliferative activity against human MCF7 cells assessed as inhibition of cell proliferation measured after 72 hrs by MTT assay. As to conditions: MCF7, 72 h. Format: functional, cell-based. For orientation: Formazan colour is commonly taken as a measure of viable cells.
In another assay the test system is PC-9. Put plainly: Antiproliferative activity against human PC-9 cells assessed as inhibition of cell proliferation measured after 72 hrs by MTT assay. The class given is functional, cell-based. As to conditions: PC-9, 72 h.
A further assay relates to GES1. The assay can be described thus: Antiproliferative activity against human GES1 cells assessed as inhibition of cell proliferation measured after 72 hrs by MTT assay. The class given is cell-based. To be noted: GES1, 72 h.

With `CCCCCc1c(C)nc2nc(SCc3ccc(Cl)cc3)nn2c1Nc1cc(-c2ccccc2)[nH]n1`, the 50% inhibitory concentration (IC50) with MGC-803 is 7.14 µM; in the assay on MCF7, 6.39 µM; in the assay on PC-9, over 50 µM; in the assay on GES1, over 50 µM.

Take `CCCSc1nc2nc(C)cc(Nc3cc(-c4ccccc4)[nH]n3)n2n1`: the IC50 with MGC-803 is 12.6 µM; in the assay with MCF7, over 50 µM; with PC-9, over 50 µM; with GES1, over 50 µM.

As to `Cc1cc(Nc2cc(-c3ccccc3)[nH]n2)n2nc(SCc3cccc(Br)c3)nc2n1`, the IC50 with MGC-803 is 4.82 µM; with MCF7, 5.14 µM; with PC-9, 8.9 µM; in the assay on GES1, over 50 µM.

Take `Cc1cc(Nc2cc(-c3ccc(F)cc3)[nH]n2)n2nc(SCc3ccc(Br)cc3)nc2n1`: the IC50 in the assay with MGC-803 is 2.21 µM; with MCF7 it was 4.57 µM; with PC-9 it was 6.21 µM; in the assay on GES1, 34.1 µM.

With `Cc1cc(Nc2cc(-c3ccc(Cl)cc3)[nH]n2)n2nc(SCc3ccc(Br)cc3)nc2n1`, the IC50 in the assay on MGC-803 was 2.78 µM; with MCF7, 3.62 µM; in the assay with PC-9, 4.92 µM; in the assay with GES1, 28.2 µM.

As for `Cc1cc(Nc2ccn(Cc3csc4ccc(Cl)cc34)n2)n2nc(SCc3ccc(Br)cc3)nc2n1`, the IC50 is 1.57 µM with MGC-803, 2.57 µM in the assay with MCF7, 4.35 µM in the assay with PC-9 and 31.4 µM in the assay with GES1.

Regarding `Cc1cc(Nc2cc(-c3ccccc3)[nH]n2)n2ncnc2n1`, the IC50 in the assay on MGC-803 was 21.7 µM; in the assay with MCF7, over 50 µM; in the assay with PC-9, over 50 µM; in the assay with GES1 it was over 50 µM.

Regarding `Cc1cc(Nc2cc(-c3ccccc3)[nH]n2)n2nc(SCc3cccc4ccccc34)nc2n1`, the IC50 was found to be 3.12 µM with MGC-803, 7.56 µM with MCF7, 3.95 µM with PC-9 and 36.3 µM with GES1.

For `O=c1[nH]cc(F)c(=O)[nH]1` [FLUOROURACIL], the IC50 with MCF7 is 5.32 µM; in the assay on GES1, 2.45 µM.

Regarding `Cc1cc(Nc2cc(-c3ccccc3)[nH]n2)n2nc(SCc3csc4ccccc34)nc2n1`, the IC50 turned out to be 2.28 µM with MGC-803, 3.47 µM in the assay with MCF7, 4.42 µM with PC-9 and 29.2 µM with GES1.

On to `C#CCSc1nc2nc(C)cc(Nc3cc(-c4ccccc4)[nH]n3)n2n1`, for which the IC50 is 13.4 µM in the assay on MGC-803, 21.8 µM in the assay on MCF7, over 50 µM in the assay with PC-9 and 45.7 µM with GES1.

Consider `Cc1cc(Nc2cc(-c3ccccc3)[nH]n2)n2nc(SCc3ccc([N+](=O)[O-])cc3)nc2n1`, for which the IC50 worked out at 4.25 µM in the assay with MGC-803, 5.06 µM with MCF7, 7.98 µM in the assay with PC-9 and 43.6 µM in the assay on GES1.

As to `Cc1cc(Nc2cc(-c3cccs3)[nH]n2)n2nc(SCc3ccc(Br)cc3)nc2n1`, the IC50 is 3.77 µM with MGC-803, 5.37 µM with MCF7, 4.89 µM with PC-9 and 38.7 µM in the assay on GES1.

Turning to `Cc1cc(Nc2ccn(Cc3cccc4ccccc34)n2)n2nc(SCc3ccc(Br)cc3)nc2n1`, the IC50 with MGC-803 was found to be 3.24 µM; in the assay on MCF7, 4.31 µM; with PC-9, 5.66 µM; in the assay on GES1, 30 µM.

In the case of `Cc1cc(Nc2cc(-c3ccccc3)[nH]n2)n2nc(SCc3ccc(C(F)(F)F)cc3)nc2n1`, the IC50 is 3.52 µM in the assay on MGC-803, 4.82 µM in the assay with MCF7, 4.24 µM in the assay on PC-9 and 42.7 µM with GES1.

With `Cc1cc(Nc2cc(-c3ccccc3)[nH]n2)n2nc(SCc3ccc(Cl)cc3)nc2n1`, the IC50 with MGC-803 stood at 3.95 µM; with MCF7, 8.26 µM; in the assay on PC-9, 6.71 µM; in the assay with GES1 it was 31.8 µM.

Consider `Cc1cc(Nc2cc(-c3ccccc3)[nH]n2)n2nc(SCCc3ccccc3)nc2n1`, for which the concentration for half-maximal inhibition (IC50) in the assay with MGC-803 stood at 5.62 µM; in the assay on MCF7 it was 2.7 µM; in the assay with PC-9 it was 4.93 µM; in the assay on GES1 it was 37.4 µM.

Regarding `COc1ccc(CSc2nc3nc(C)cc(Nc4cc(-c5ccccc5)[nH]n4)n3n2)cc1`, the IC50 came out at 3.17 µM with MGC-803, 4.02 µM in the assay with MCF7, 8.11 µM in the assay with PC-9 and 28.2 µM in the assay on GES1.

For the molecule `Cc1cc(Nc2ccn(Cc3ccc(F)cc3)n2)n2nc(SCc3ccc(Br)cc3)nc2n1`, the IC50 in the assay with MGC-803 was 3.07 µM; in the assay on MCF7, 4.28 µM; with PC-9, 19.4 µM; with GES1 it was 40.5 µM.

Take `Cc1nc2nc(SCc3ccc(Cl)cc3)nn2c(Nc2cc(-c3ccccc3)[nH]n2)c1C`: the IC50 was 9.05 µM with MGC-803, 10.6 µM with MCF7, over 50 µM in the assay with PC-9 and 47.2 µM in the assay with GES1.

Turning to `Cc1cc(Nc2cc(-c3ccccc3)[nH]n2)n2nc(SCC3CC3)nc2n1`, the half-inhibitory concentration (IC50) in the assay on MGC-803 was 16.1 µM; with MCF7, over 50 µM; in the assay with PC-9 it was over 50 µM; with GES1, over 50 µM.

`Cc1cc(Nc2cc(-c3ccccc3)[nH]n2)n2nc(SCC(=O)c3ccccc3)nc2n1`: the IC50 in the assay with MGC-803 turned out to be 2.58 µM; in the assay with MCF7 it was 5.24 µM; with PC-9, 4.45 µM; with GES1, 33.3 µM.

`Cc1ccc(CSc2nc3nc(C)cc(Nc4cc(-c5ccccc5)[nH]n4)n3n2)cc1`: the IC50 with MGC-803 came out at 6.96 µM; in the assay on MCF7, 7.29 µM; in the assay on PC-9, 7.31 µM; with GES1, 36.2 µM.

`Cc1cc(Nc2ccn(Cc3ccccc3)n2)n2nc(SCc3ccc(Br)cc3)nc2n1`: the IC50 is 4.72 µM in the assay on MGC-803, 15.8 µM in the assay on MCF7, over 50 µM in the assay on PC-9 and 44.4 µM in the assay on GES1.

As to `C=CCSc1nc2nc(C)cc(Nc3cc(-c4ccccc4)[nH]n3)n2n1`, the IC50 was 17.2 µM with MGC-803, over 50 µM in the assay on MCF7, over 50 µM in the assay on PC-9 and over 50 µM with GES1.

Consider `Cc1cc(Nc2cc(-c3ccccc3)[nH]n2)n2nc(SCc3nc4ccccc4[nH]3)nc2n1`, for which the half-maximal inhibitory concentration (IC50) was determined as 1.79 µM in the assay on MGC-803, 2.73 µM in the assay with MCF7, 4.84 µM in the assay with PC-9 and 27.8 µM in the assay on GES1.

In the case of `Cc1cc(Nc2ccn(Cc3ccc(C(F)(F)F)cc3)n2)n2nc(SCc3ccc(Br)cc3)nc2n1`, the IC50 with MGC-803 came to 2.59 µM; in the assay with MCF7, 2.28 µM; with PC-9, 5.58 µM; in the assay with GES1 it was 30.2 µM.

For `Cc1cc(Nc2cc(-c3ccccc3)[nH]n2)n2nc(SCc3ccc(Br)cc3)nc2n1`, the IC50 with MGC-803 was 1.11 µM; with MCF7, 2.72 µM; in the assay with PC-9, 4.76 µM; with GES1, 39.3 µM.

Turning to `Cc1cc(Nc2cc(-c3ccccc3)[nH]n2)n2nc(SCc3c(Cl)cccc3Cl)nc2n1`, the IC50 in the assay with MGC-803 amounted to 5.28 µM; in the assay with MCF7, 3.23 µM; in the assay on PC-9 it was 5.18 µM; with GES1, 39.6 µM.

Turning to `Cc1cc(Nc2cc(C(C)(C)C)[nH]n2)n2nc(SCc3ccc(Br)cc3)nc2n1`, the IC50 in the assay on MGC-803 is 5.62 µM; in the assay on MCF7, 7.29 µM; in the assay on PC-9, 12.4 µM; with GES1, over 50 µM.

For the molecule `Cc1cc(Nc2cc(-c3ccccc3)[nH]n2)n2nc(SCC3CCCCC3)nc2n1`, the IC50 is 12.6 µM in the assay on MGC-803, over 50 µM with MCF7, over 50 µM with PC-9 and over 50 µM with GES1.

`Cc1cc(Nc2cc(-c3ccccc3)[nH]n2)n2nc(SCCCc3ccccc3)nc2n1`: the half-maximal inhibitory concentration (IC50) came out at 6.51 µM with MGC-803, 3.9 µM in the assay with MCF7, 5.03 µM in the assay on PC-9 and 40.2 µM in the assay on GES1.

In the case of `COc1ccc(Cn2ccc(Nc3cc(C)nc4nc(SCc5ccc(Br)cc5)nn34)n2)cc1`, the IC50 with MGC-803 is 12.6 µM; in the assay with MCF7 it was 14.6 µM; in the assay on PC-9, over 50 µM; in the assay with GES1 it was over 50 µM.

Take `Cc1ccc(Cn2ccc(Nc3cc(C)nc4nc(SCc5ccc(Br)cc5)nn34)n2)cc1`: the IC50 is 7.42 µM in the assay on MGC-803, 11.3 µM in the assay with MCF7, over 50 µM in the assay on PC-9 and over 50 µM in the assay on GES1.

Turning to `Cc1cc(Nc2cc(-c3ccccc3)[nH]n2)n2nc(SCc3ccc(F)cc3)nc2n1`, the IC50 with MGC-803 is 3.27 µM; in the assay on MCF7 it was 4.02 µM; with PC-9 it was 8.11 µM; with GES1, 35.5 µM.

In the case of `Cc1cc(Nc2cc(-c3ccccc3)[nH]n2)n2nc(SCc3ccccc3Br)nc2n1`, the IC50 in the assay on MGC-803 is 3.65 µM; in the assay with MCF7, 3.02 µM; with PC-9 it was 5.63 µM; with GES1, 41.1 µM.

As for `Cc1cc(Nc2cc(-c3ccccc3)[nH]n2)n2nc(SCc3cc(=O)oc4c3ccc3ccccc34)nc2n1`, the IC50 in the assay on MGC-803 is 2.07 µM; in the assay with MCF7, 4.28 µM; in the assay with PC-9, 3.41 µM; with GES1, 28.6 µM.
